Measured values published in patent US20180362893A1, “COMPOSITIONS COMPRISING AN ULTRAVIOLET INDICATOR” (Chemia Corporation, priority 2015, published 2018).

Experiment: Solubility of Pylaklor White Grains S-5 UV indicator in fragrances
Conditions: for Color change of the solution: solution of the named fragrance with 5 wt. % Pylaklor White Grains S-5
[1] = Pylaklor White Grains S-5 at 5 wt. % in the named aldehyde fragrance (Table 6)
[2] = Pylaklor White Grains S-5 at 5 wt. % in the named fragrance (Table 5)

Procedure: The solubility of Pylaklor White Grains S-5 UV indicator was evaluated in difference chemical classes of fragrances at a UV indicator concentration of 5 wt. %. The resulting admixtures were evaluated for UV activity by exposure to UV light (400 nm ±5 nm) using a Rayovac VBUV-B light source and visual observation.
The solubility of Pylaklor White Grains S-5 UV indicator was evaluated in three different aldehyde fragrances at a UV indicator concentration of 5 wt. %. The resulting admixtures were evaluated for UV activity by exposure to UV light (400 nm±5 nm) using a Rayovac VBUV-B light source and visual observation.

| Soluble [2] | SMILES | Soluble [1] | Color change of the solution |
| --- | --- | --- | --- |
| – | CCCCCCCCCC=O [Aldehyde C-10 (decanal), decanal] | Yes | – |
| – | O=C/C=C/c1ccccc1 [Cinnamic aldehyde] | Yes | – |
| Yes | CC/C=C\CCO [Cis-3-hexanol] | – | changed from a straw color to a yellow color |
| Yes | CCOC(C)=O [Ethyl acetate] | – | – |
| Yes | CCCCCCC1CCC(=O)O1 (stereo not shown) [Gamma-decalactone] | – | – |
| Yes | CCCCCCC(C=O)=Cc1ccccc1 [Hexyl cinnamic aldehyde] | – | changed color |
| Yes | C=CC(C)(O)CCC=C(C)C (stereo not shown) [Linalool] | – | – |
| Yes | CCCCCC1C(=O)CCC1CC(=O)OC (stereo not shown) [Methyl dihydrojasmonate] | – | – |
